Test results from US20020137929A1, “1 - (3-heterocyclylphenyl) isothiourea, -isourea, -guanidine and -amidine herbicidal agents” (Intellectual Property Department, BASF Aktiengesellschaft, priority 1998, published 2002).

What was measured:
[1] = tested on: CHEAL (Lambsquarters, Common); experiment: Postemergence herbicidal evaluation; type: in vivo, Chenopodium album; settings: postemergence
Method in brief: (§1)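 Young plants, roughly two weeks from seeding, receive the active ingredient as a sprayed dispersion (acetone/water 50/50, 0.5% TWEEN 20) at 40 psi. Doses span about 0.0156 to 0.500 kg/ha. A visual score from 0 to 9 compares treated with control plants four to five weeks on.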

CYPSE (Flatsedge) = experiment: Preemergence weed control under flooded paddy conditions; type: in vivo, Cyperus serotinus; settings: rated 3-4 weeks after treatment
Method in brief: (§2)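 Values are visual 0-9 scores against a control for a preemergence application into paddy flood water at about 0.0313 to 0.500 kg/ha. Greenhouse duration was three to four weeks.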

CASOB (Sicklepod) = experiment: Postemergence herbicidal evaluation; type: in vivo, Cassia obtusifolia; settings: postemergence
Method in brief: as §1

ZEAMX (Corn, Field) = experiment: Preemergence herbicidal evaluation; type: in vivo, Zea mays; settings: rated 4-5 weeks after treatment
Method in brief: (§3)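 In this greenhouse assay, monocot and dicot seeds are planted in soil and treated prior to emergence with an aqueous acetone spray (about 0.0156-0.500 kg/ha). Plants are assessed visually against control on a 0-9 scale after 4-5 weeks.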

ECHCG (Barnyardgrass) [2] = experiment: Postemergence herbicidal evaluation; type: in vivo, Echinochloa crus-galli; settings: postemergence
Method in brief: as §1

CYPIR (Rice Flatsedge) = experiment: Preemergence weed control under flooded paddy conditions; type: in vivo, Cyperus iria; settings: rated 3-4 weeks after treatment
Method in brief: (§4)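 Flooded-pot preemergence screen with silt loam and seeds in the upper 0.5 cm. Dose about 0.0313 to 0.500 kg/ha, delivered into flood water; visual 0-9 score after 3 to 4 weeks.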

SETVI (Foxtail, Green) [3] = experiment: Postemergence herbicidal evaluation; type: in vivo, Setaria viridis; settings: postemergence
Method in brief: as §1

[4] = tested on: CHEAL (Lambsquarters, Common); experiment: Preemergence herbicidal evaluation; type: in vivo, Chenopodium album; settings: rated 4-5 weeks after treatment
Method in brief: as §3

ECHCG (Barnyardgrass) [5] = experiment: Preemergence herbicidal evaluation; type: in vivo, Echinochloa crus-galli; settings: rated 4-5 weeks after treatment
Method in brief: as §3

SETVI (Foxtail, Green) [6] = experiment: Preemergence herbicidal evaluation; type: in vivo, Setaria viridis; settings: rated 4-5 weeks after treatment
Method in brief: as §3

GALAP (Galium) = experiment: Postemergence herbicidal evaluation; type: in vivo, Galium aparine; settings: postemergence
Method in brief: as §1

[7] = tested on: ECHORC (Watergrass (Calif.)); experiment: Preemergence weed control under flooded paddy conditions; type: in vivo, Echinochloa oryzoides; settings: rated 3-4 weeks after treatment
Method in brief: as §4

MOOVA (Monochoria) = experiment: as above; type: in vivo, Monochoria vaginalis; settings: rated 3-4 weeks after treatment
Method in brief: as §2

[8] = tested on: IPOHE (Morningglory, Ivyleaf); experiment: Preemergence herbicidal evaluation; type: in vivo, Ipomoea hederacea; settings: rated 4-5 weeks after treatment
Method in brief: as §3

AMBEL (Ragweed, Common) = experiment: Postemergence herbicidal evaluation; type: in vivo, Ambrosia artemisifolia; settings: postemergence
Method in brief: as §1

ORYSAT (Rice, Tebonnet) = experiment: Postemergence herbicidal evaluation; type: in vivo, Oryza sativa, (L.) Tebonnet; settings: postemergence
Method in brief: as §1

[9] = tested on: GLXMAW (Soybean, Williams); experiment: Postemergence herbicidal evaluation; type: in vivo, Glycine max, (L.) Merr. cv Williams; settings: postemergence
Method in brief: as §1

COC(=O)C(C)OC(=O)CN1C(=O)CSC1=Nc1cc(-n2c(=O)cc(C(F)(F)F)n(C)c2=O)c(F)cc1Cl (centres unmarked) [Compound 116, 2-{{2-Chloro-5-[3,6-dihydro-3-methyl-2,6-dioxo-4-(trifluoromethyl)-1(2H)-pyrimidinyl]-4-fluorophenyl}imino}-4-oxo-3-thiazolidineacetic acid, ester with methyl lactate]
Herbicidal rating CHEAL ([1]; rate 0.0158 kg/ha): 4.0 | Herbicidal rating CHEAL ([1]; rate 0.0315 kg/ha): 5.0 | Herbicidal rating CHEAL ([1]; rate 0.0630 kg/ha): 9.0 | herbicidal effect rating, CYPSE (CYPSE (Flatsedge); 0.0313 kg/ha): 6.0 | herbicidal effect rating, CYPSE (CYPSE (Flatsedge); 0.0625 kg/ha): 6.0 | CYPSE herbicidal effect rating (CYPSE (Flatsedge); 0.1250 kg/ha): 7.0 | CYPSE herbicidal effect rating (CYPSE (Flatsedge); 0.2500 kg/ha): 8.0 | Herbicidal rating CASOB (CASOB (Sicklepod); rate 0.0158 kg/ha): 1.0 | Herbicidal rating CASOB (CASOB (Sicklepod); rate 0.0315 kg/ha): 1.0 | Herbicidal rating CASOB (CASOB (Sicklepod); rate 0.0630 kg/ha): 1.0 | Preemergence herbicidal rating ZEAMX (ZEAMX (Corn, Field); rate 0.0156 kg/ha): 0.0 | Preemergence herbicidal rating ZEAMX (ZEAMX (Corn, Field); rate 0.0313 kg/ha): 0.0 | Preemergence herbicidal rating ZEAMX (ZEAMX (Corn, Field); rate 0.0625 kg/ha): 0.0 | Preemergence herbicidal rating ZEAMX (ZEAMX (Corn, Field); rate 0.1250 kg/ha): 0.0 | Preemergence herbicidal rating ZEAMX (ZEAMX (Corn, Field); rate 0.2500 kg/ha): 0.0 | Herbicidal rating ECHCG (ECHCG (Barnyardgrass) [2]; rate 0.0158 kg/ha): 3.0 | Herbicidal rating ECHCG (ECHCG (Barnyardgrass) [2]; rate 0.0315 kg/ha): 1.0 | Herbicidal rating ECHCG (ECHCG (Barnyardgrass) [2]; rate 0.0630 kg/ha): 2.0 | herbicidal effect rating, CYPIR (CYPIR (Rice Flatsedge); 0.0313 kg/ha): 3.0 | herbicidal effect rating, CYPIR (CYPIR (Rice Flatsedge); 0.0625 kg/ha): 6.0 | CYPIR herbicidal effect rating (CYPIR (Rice Flatsedge); 0.1250 kg/ha): 7.0 | CYPIR herbicidal effect rating (CYPIR (Rice Flatsedge); 0.2500 kg/ha): 7.0 | Herbicidal rating SETVI (SETVI (Foxtail, Green) [3]; rate 0.0158 kg/ha): 1.0 | Herbicidal rating SETVI (SETVI (Foxtail, Green) [3]; rate 0.0315 kg/ha): 3.0 | Herbicidal rating SETVI (SETVI (Foxtail, Green) [3]; rate 0.0630 kg/ha): 3.0 | Preemergence herbicidal rating CHEAL ([4]; rate 0.0156 kg/ha): 9.0 | Preemergence herbicidal rating CHEAL ([4]; rate 0.0313 kg/ha): 9.0 | Preemergence herbicidal rating CHEAL ([4]; rate 0.0625 kg/ha): 4.0 | Preemergence herbicidal rating CHEAL ([4]; rate 0.1250 kg/ha): 7.0 | Preemergence herbicidal rating CHEAL ([4]; rate 0.2500 kg/ha): 9.0 | Preemergence herbicidal rating ECHCG (ECHCG (Barnyardgrass) [5]; rate 0.0156 kg/ha): 0.0 | Preemergence herbicidal rating ECHCG (ECHCG (Barnyardgrass) [5]; rate 0.0313 kg/ha): 0.0 | Preemergence herbicidal rating ECHCG (ECHCG (Barnyardgrass) [5]; rate 0.0625 kg/ha): 0.0 | Preemergence herbicidal rating ECHCG (ECHCG (Barnyardgrass) [5]; rate 0.1250 kg/ha): 0.0 | Preemergence herbicidal rating ECHCG (ECHCG (Barnyardgrass) [5]; rate 0.2500 kg/ha): 0.0 | Preemergence herbicidal rating SETVI (SETVI (Foxtail, Green) [6]; rate 0.0156 kg/ha): 0.0 | Preemergence herbicidal rating SETVI (SETVI (Foxtail, Green) [6]; rate 0.0313 kg/ha): 0.0 | Preemergence herbicidal rating SETVI (SETVI (Foxtail, Green) [6]; rate 0.0625 kg/ha): 0.0 | Preemergence herbicidal rating SETVI (SETVI (Foxtail, Green) [6]; rate 0.1250 kg/ha): 0.0 | Preemergence herbicidal rating SETVI (SETVI (Foxtail, Green) [6]; rate 0.2500 kg/ha): 3.0 | Herbicidal rating GALAP (GALAP (Galium); rate 0.0158 kg/ha): 0.0 | Herbicidal rating GALAP (GALAP (Galium); rate 0.0315 kg/ha): 0.0 | Herbicidal rating GALAP (GALAP (Galium); rate 0.0630 kg/ha): 0.0 | herbicidal effect rating, ECHORC ([7]; 0.0313 kg/ha): 0.0 | herbicidal effect rating, ECHORC ([7]; 0.0625 kg/ha): 5.0 | ECHORC herbicidal effect rating ([7]; 0.1250 kg/ha): 6.0 | ECHORC herbicidal effect rating ([7]; 0.2500 kg/ha): 5.0 | herbicidal effect rating, MOOVA (MOOVA (Monochoria); 0.0313 kg/ha): 7.0 | herbicidal effect rating, MOOVA (MOOVA (Monochoria); 0.0625 kg/ha): 9.0 | MOOVA herbicidal effect rating (MOOVA (Monochoria); 0.1250 kg/ha): 9.0 | MOOVA herbicidal effect rating (MOOVA (Monochoria); 0.2500 kg/ha): 9.0 | Preemergence herbicidal rating IPOHE ([8]; rate 0.0156 kg/ha): 0.0 | Preemergence herbicidal rating IPOHE ([8]; rate 0.0313 kg/ha): 0.0 | Preemergence herbicidal rating IPOHE ([8]; rate 0.0625 kg/ha): 0.0 | Preemergence herbicidal rating IPOHE ([8]; rate 0.1250 kg/ha): 1.0 | Preemergence herbicidal rating IPOHE ([8]; rate 0.2500 kg/ha): 3.0 | Herbicidal rating AMBEL (AMBEL (Ragweed, Common); rate 0.0158 kg/ha): 9.0 | Herbicidal rating AMBEL (AMBEL (Ragweed, Common); rate 0.0315 kg/ha): 9.0 | Herbicidal rating AMBEL (AMBEL (Ragweed, Common); rate 0.0630 kg/ha): 7.0 | Herbicidal rating ORYSAT (ORYSAT (Rice, Tebonnet); rate 0.0158 kg/ha): 1.5 | Herbicidal rating ORYSAT (ORYSAT (Rice, Tebonnet); rate 0.0315 kg/ha): 2.0 | Herbicidal rating ORYSAT (ORYSAT (Rice, Tebonnet); rate 0.0630 kg/ha): 2.0 | Herbicidal rating GLXMAW ([9]; rate 0.0158 kg/ha): 5.5 | Herbicidal rating GLXMAW ([9]; rate 0.0315 kg/ha): 5.5 | Herbicidal rating GLXMAW ([9]; rate 0.0630 kg/ha): 5.5
